From patent publication US20230134376A1, “METHOD FOR QUANTITATIVE IMAGING OF THE METABOLIC STATUS OF A LESION” (priority 2020, published 2023)

How the values were obtained:
excisional skin wound = assay: Full-thickness excisional skin wound healing model, kinetic analysis of wound area; format: in vivo, mice (C57BL/6J); settings: for DCA-mediated delayed wound closure (measurement of wound area) compared to control mice: single administration 300 mg/Kg i.p. 1 h prior skin wounding
Procedure: FIG. 1: In vivo relevance of the cell metabolic adaptation in skin repair. The excisional skin wound healing model was used. Left, kinetic analysis of skin wound areas was performed. Values represent mean±SD. Right, representative macroscopic images of untreated and DCA treated mice are shown at the indicated days after wounding. Bar, 5 mm. *P<0.05, **P<0.01; Student's t-test. Untreated, n=8; DCA, n=9. One experiment shown out of two performed with similar number of animals.
In order to determine the relevance of wound acidification in healing outcome in vivo, the pyruvate dehydrogenase kinase (Pdk) inhibitor dichloroacetate (DCA) was used in a model of full-thickness excisional skin wounding to promote glucose oxidation over anaerobic glycolysis, thus interfering with local acidosis.
Excisional model of skin injury. A full-thickness excisional skin injury model was performed as previously described^7. Mice were anesthetized with 10 μL/g of weight of Ketamine (final concentration 10 mg/mL) and Xylazine (final concentration 1 mg/mL) in saline buffer. As described^7, a full-thickness wound (from skin to underlying panniculus carnosus) was generated with disposable biopsy punch (8-mm diameter). Gentamicin was immediately applied to limit gross bacterial infections, not evident from histological examination carried out at different time points of the experiment. Mice were optionally treated with a solution of sodium dichloroacetate (DCA; Sigma-Aldrich Corp.), which was injected i.p. in 10-12 weeks-old C57BL/6J with a dosage of 300 mg/Kg 1 h before skin wounding. PBS or saline were used in control mice. As previously described^7, the skin wounds of each mouse were digitally photographed and measured during wound healing by tracing them on a transparency, calculated with the ImageJ-Fiji software, and the variations in time expressed as a percentage of the initial wound area.

NADH/NAD+ ratio = assay: FLIM phasor quantification of NADH/NAD+ ratio (anaerobic glycolysis) in incisional skin wound; format: in vivo, mice (C57Bl6/J); settings: for NADH/NAD+ ratio in perilesional area vs untreated condition (in words): comparison between first 10 values of each condition, t-test; for line slope of linear regression of NADH/NAD+ ratio vs untreated (in words): deviation between slopes test; for slope of gradient of NADH/NAD+ ratio vs distance from wound: untreated −0.267±0.06
Text: FIG. 2: Measurement of anaerobic glycolysis in wound by FLIM quantification of NADH/NAD^+ ratio. Phasor analysis of free and bound NADH fluorescence allows a quantification of their relative increase. A, map of a gradient of NADH/NAD+ ratio (grey). Wound margin is highlighted with a dashed line. All scale bars 100 μm. B, phasor analysis of FLIM NADH fluorescence. NADH region of the phasor plot was divided in five sub-regions along the major axis and each is associated with an intensity value (0-20, 20-40, 40-60, 60-80, 80-100). […] D, NADH/NAD^+ ratio percentage as a function of distance from wound (grey). […] NADH/NAD^+ ratio is lower in perilesional area of DCA-treated mice (grey line vs grey line of D, comparison between first 10 values of each condition, t-test ****, P<0.0001). n=3 mice.
FIG. 8. Effect of the mitochondrial respiratory chain in the measurement of NADH/NAD^+ ratio as expression of glycolysis in wound. A, NADH/NAD^+ ratio percentage as a function of distance from wound. […] NADH/NAD^+ ratio is lower in perilesional area of Antimycin A-treated mice (bottom graph vs grey line for untreated condition, comparison between first 10 values of each condition, t-test, P<0.0001). […] B, map of a gradient of NADH/NAD+ ratio (grey) in wound in untreated (n=4) or mice treated with Rotenone (n=3) and Antimycin A (n=2). Wound margin is highlighted with a dashed line. All scale bars 20 μm.
On day 1 after wounding, FLIM images were acquired with 2PM and stitched to produce lifetime XYZ mosaics (600-1000 μm wide and 200 μm deep) (FIG. 2a). Common FLIM imaging has slow acquisition times, which are required to collect enough photons to reconstruct a time decay curve. This was compensated by the use of a time correlated single-photon counting (TCSPC) 16-channel parallel detector, with an average counting speed of 80 MHz which allowed faster 3D scanning of the mosaic over lesion area^31. The ratio of free to protein-bound NADH has been known to be associated with the ratio of NAD^+ to NADH in small intestine epithelial cells^32 and breast cancer cells^33. Protein-bound NADH has a complex multi-exponential lifetime decay that has been related to its binding to different enzymes, such as malate dehydrogenase and lactate dehydrogenase^34. Standard approaches revolved on a characterization by fitting with a two-exponential curve, corresponding to a short or long lifetime range. This approximation is however misleading because free and protein-bound NADH have common exponential components and the NADH binding sites with different enzymes cannot be considered^32, 35. In fact, in our case this approach was ineffective to discriminate between untreated and DCA-treated mice (FIG. 7). […] Instead, phasor analysis^32, 36 was used. In accordance with a previous report^37, we designed an analysis that first divides the phasor cloud into five regions (FIG. 2b) corresponding to a gradient of prevailing anaerobic glycolysis in regions of lower lifetimes towards a region where more oxidative phosphorylation occurs. Pixels attributed to each region were then associated to discrete values of decreasing intensity, and therefore quantification of pixel intensity on the resulting image was proportional to the relative increase in anaerobic glycolysis. By linearizing images, we obtained a spatial distribution of anaerobic glycolysis from wound profile (FIG. 2c). At lesion margin, gradient of NADH/NAD^+ ratio corresponded to 29.1±0.4% and decreased until to 2.6±0.1% distance (range of 200-500 μm) from the wound. The decrease was evaluated with a linear regression fitting as the simplest fitting model for testing the overall deviation from zero slope curve (linear regression fitting with a slope of −0.050±0.0016 μm^−1; black line with 95% CL bands; deviation from zero slope test, P<0.0001) (FIG. 2d). An increased anaerobic glycolysis around wound margins was also evident in XZ maximum intensity projection images of the maps (FIG. 2e). […]

Compound: O=C([O-])C(Cl)Cl.[Na+] [DCA, sodium dichloroacetate]
- DCA-mediated delayed wound closure (measurement of wound area) compared to control mice (excisional skin wound; day 1, P=0.005): −28.3%
- DCA-mediated delayed wound closure (measurement of wound area) compared to control mice (excisional skin wound; day 2, P=0.004): −27.1%
- DCA-mediated delayed wound closure (measurement of wound area) compared to control mice (excisional skin wound; day 3, P=0.05): −22.5%
- DCA-mediated delayed wound closure (measurement of wound area) compared to control mice (excisional skin wound; day 4, P=0.02): −24.5%
- DCA-mediated delayed wound closure (measurement of wound area) compared to control mice (excisional skin wound; day 5, P=0.002): −30.5%
- DCA-mediated delayed wound closure (measurement of wound area) compared to control mice (excisional skin wound; day 6, P=0.01): −20.4%
- DCA-mediated delayed wound closure (measurement of wound area) compared to control mice (excisional skin wound; day 7, P=0.03): −17.4%
- wound closure curve compared to mice treated with vehicle alone (excisional skin wound; single administration 300 mg/Kg 1 h prior skin wounding, n=9 vs n=8): significantly delayed curve
- anaerobic glycolysis (NADH/NAD+ ratio) at perilesional area (NADH/NAD+ ratio; DCA 300 mg/Kg i.p., 1 h, mean of the first 10 values, untreated 29.1±0.4%, P<0.0001): 8.0±0.2%
- gradient steepness, slope of linear regression of NADH/NAD+ ratio vs distance from wound (NADH/NAD+ ratio; DCA 300 mg/Kg i.p., 1 h, untreated −0.050±0.0016, P<0.0001): −0.035±0.0023 μm^−1
- NADH lifetime decays in perilesional regions fitted with a two-exponential decay function, treated vs untreated (NADH/NAD+ ratio; Student t-test, P>0.05): could not show significant differences
- NADH/NAD+ ratio in perilesional area vs untreated condition (in words) (NADH/NAD+ ratio): lower
- line slope of linear regression of NADH/NAD+ ratio vs untreated (in words) (NADH/NAD+ ratio; P<0.0001): reduction in line slope

Compound: C=C(C)[C@H]1Cc2c(ccc3c2O[C@@H]2COc4cc(OC)c(OC)cc4[C@@H]2C3=O)O1 [Rotenone]
- glycolysis in regions distant from the wound (NADH/NAD+ ratio; Rotenone 20 μM local): increased glycolysis in regions distant from the wound
- slope of gradient of NADH/NAD+ ratio vs distance from wound (NADH/NAD+ ratio; Rotenone 20 μM local (i.d.) 1 h before imaging, P<0.0001): −0.113±0.002 μm^−1
- fraction of anaerobic glycolysis at wound margin (NADH/NAD+ ratio; Rotenone 20 μM local (i.d.), untreated 20.28±0.41%, P>0.05): 20.08±0.21%
- NADH/NAD+ ratio in perilesional area vs untreated condition (in words) (NADH/NAD+ ratio): no significant decrease in value
- line slope of linear regression of NADH/NAD+ ratio vs untreated (in words) (NADH/NAD+ ratio; P<0.0001): significant reduction in line slope

Compound: Antimycin A
- slope of gradient of NADH/NAD+ ratio vs distance from wound (NADH/NAD+ ratio; Antimycin A 5 μM i.d. 1 h before imaging, P<0.0001): −0.046±0.08 μm^−1
- glycolysis at wound margin (NADH/NAD+ ratio) (NADH/NAD+ ratio; Antimycin A 5 μM i.d., untreated 20.28±0.41%, P<0.0001): 8.37±0.49%
- NADH/NAD+ ratio in perilesional area vs untreated condition (in words) (NADH/NAD+ ratio): lower
- line slope of linear regression of NADH/NAD+ ratio vs untreated (in words) (NADH/NAD+ ratio; P<0.0001): reduction in line slope
